Experimental data: publication PMC12042115 (mLife, 2025)
Values after ≈ are worked out from the molar mass of the structure shown. Where two headings read alike, the source gives them in different places.

Legend:
GH189 (clpP1‐KD) = test: microbe, parasite or virus in culture; format: cell-based, M. bovis BCG; settings: for MIC: Mycobacterium tuberculosis variant bovis BCG
Mtb ClpP1P2 = Mtb ClpP1P2 (Mycobacterium tuberculosis, UniProt P9WPC3+P9WPC5); test: Mtb ClpP1P2 peptidase assay (library screening and IC50 determination); format: biochemical
M. tuberculosis H37Rv = test: MIC against Mtb H37Rv; format: cell-based, Mycobacterium tuberculosis; settings: for MIC90: Mycobacterium tuberculosis, H37RV
[1] = read-out: MIC (µg/ml) when clpP1‐KD induced
[2] = read-out: MIC (µg/ml) when no clpP1‐KD
[3] = Figure S4, highest concentration 100 µM, read-out: concentration inhibiting 50% of the peptidase activity
[4] = Figure 2B, neat/synthesized compounds, read-out: ClpP1P2 IC50

Chain of Mtb ClpP1P2 (P9WPC3 16-214, one chain of several): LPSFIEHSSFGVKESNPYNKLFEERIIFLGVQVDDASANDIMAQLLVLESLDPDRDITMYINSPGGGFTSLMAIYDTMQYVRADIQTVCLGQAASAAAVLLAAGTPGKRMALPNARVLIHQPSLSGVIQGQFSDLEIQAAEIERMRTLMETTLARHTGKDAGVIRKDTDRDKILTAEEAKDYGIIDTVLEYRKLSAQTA

| Compound | MIC (GH189 (clpP1‐KD); [1]) | MIC (GH189 (clpP1‐KD); [2]) | further results |
| --- | --- | --- | --- |
| [H]/N=C(/N)N[C@H]1[C@H](O)[C@@H](O)[C@H](O[C@@H]2O[C@@H](C)[C@](O)(C=O)[C@H]2O[C@@H]2O[C@@H](CO)[C@H](O)[C@@H](O)[C@@H]2NC)[C@@H](N/C(N)=N\[H])[C@@H]1O [Streptomycin] | 0.23 µg/mL (≈ 0.395 µM) | 0.24 µg/mL (≈ 0.413 µM) |  |
| CCc1cc(C(N)=S)ccn1 [Ethionamide] | 6.4 µg/mL (≈ 38.5 µM) | 46 µg/mL (≈ 277 µM) | downshift in the MIC against GH189 on clpP1‐KD (GH189 (clpP1‐KD)): > 2 fold; IC50 (Mtb ClpP1P2; [3]): > 100 µM |
| NC(=O)c1cnccn1 [Pyrazinamide, reference compound] |  |  | IC50 (Mtb ClpP1P2; [3]): > 100 µM |
| CC[C@H]1OC(=O)[C@H](C)[C@@H](O[C@H]2C[C@@](C)(OC)[C@@H](O)[C@H](C)O2)[C@H](C)[C@@H](O[C@@H]2O[C@H](C)C[C@H](N(C)C)[C@H]2O)[C@](C)(OC)C[C@@H](C)C(=O)[C@H](C)[C@@H](O)[C@]1(C)O [Clarithromycin] | 0.1 µg/mL (≈ 0.134 µM) | 0.11 µg/mL (≈ 0.147 µM) |  |
| NNC(=O)c1ccncc1 [Isoniazid] | 0.057 µg/mL (≈ 0.416 µM) | 0.066 µg/mL (≈ 0.481 µM) | IC50 (Mtb ClpP1P2; [3]): > 100 µM |
| O=C(Nc1ccc(Cl)cc1)c1ccc(N2CCOCC2)c([N+](=O)[O-])c1 [GDI‐5757] |  |  | inhibition of Mtb whole cell at 100 µM (M. tuberculosis H37Rv): Neither analog could inhibit; MIC90 (M. tuberculosis H37Rv): > 100 µM; MIC shift against GH189 on ATc induction (GH189 (clpP1‐KD)): remained inactive; inhibition of ClpP1P2 peptidase at 100 µM (Mtb ClpP1P2): Neither analog could inhibit; IC50 (Mtb ClpP1P2; [4]): > 100 µM |
| Capreomycin |  |  | MIC (µg/ml) when clpP1‐KD induced (GH189 (clpP1‐KD)): 0.14 µg/mL; MIC (µg/ml) when no clpP1‐KD (GH189 (clpP1‐KD)): 0.25 µg/mL |
| COc1nc2ccc(Br)cc2cc1[C@@H](c1ccccc1)[C@@](O)(CCN(C)C)c1cccc2ccccc12 [Bedaquiline] | 0.06 µg/mL (≈ 0.108 µM) | 0.06 µg/mL (≈ 0.108 µM) |  |
| C[C@@H](O)[C@H]1C(=O)N2C(C(=O)O)=C(S[C@@H]3CN[C@H](C(=O)N(C)C)C3)[C@H](C)[C@H]12 [Meropenem] | 1.6 µg/mL (≈ 4.17 µM) | 5.3 µg/mL (≈ 13.8 µM) | downshift in the MIC against GH189 on clpP1‐KD (GH189 (clpP1‐KD)): > 2 fold; IC50 (Mtb ClpP1P2; [3]): > 100 µM |
| O=C(Oc1ccccc1)c1ccc(N2CCOCC2)c([N+](=O)[O-])c1 [GDI‐5756] |  |  | inhibition of Mtb whole cell at 100 µM (M. tuberculosis H37Rv): Neither analog could inhibit; MIC90 (M. tuberculosis H37Rv): > 100 µM; MIC shift against GH189 on ATc induction (GH189 (clpP1‐KD)): marginally shifted down; inhibition of ClpP1P2 peptidase at 100 µM (Mtb ClpP1P2): Neither analog could inhibit; IC50 (Mtb ClpP1P2; [4]): > 100 µM |
| CC[C@H]1OC(=O)[C@H](C)[C@@H](O[C@H]2C[C@@](C)(OC)[C@@H](O)[C@H](C)O2)[C@H](C)[C@@H](O[C@@H]2O[C@H](C)C[C@H](N(C)C)[C@H]2O)[C@](C)(O)C[C@@H](C)CN(C)[C@H](C)[C@@H](O)[C@]1(C)O [Azithromycin] | 0.46 µg/mL (≈ 0.614 µM) | 0.5 µg/mL (≈ 0.668 µM) |  |
| CO[C@H]1/C=C/O[C@@]2(C)Oc3c(C)c(O)c4c(O)c(cc(O)c4c3C2=O)NC(=O)/C(C)=C\C=C\[C@H](C)[C@H](O)[C@@H](C)[C@@H](O)[C@@H](C)[C@H](OC(C)=O)[C@@H]1C [Rifamycin, reference compound] |  |  | IC50 (Mtb ClpP1P2; [3]): > 100 µM |
| CC[C@@H](CO)NCCN[C@@H](CC)CO [Ethambutol] | 0.28 µg/mL (≈ 1.37 µM) | 0.62 µg/mL (≈ 3.03 µM) | downshift in the MIC against GH189 on clpP1‐KD (GH189 (clpP1‐KD)): > 2 fold |
| CO[C@H]1/C=C/O[C@@]2(C)Oc3c(C)c(O)c4c(O)c(c(/C=N/N5CCN(C)CC5)c(O)c4c3C2=O)NC(=O)/C(C)=C\C=C\[C@H](C)[C@H](O)[C@@H](C)[C@@H](O)[C@@H](C)[C@H](OC(C)=O)[C@@H]1C [Rifampicin] | 0.01 µg/mL (≈ 0.0122 µM) | 0.01 µg/mL (≈ 0.0122 µM) |  |
| N[C@@H]1CON=C1O [D‐Cycloserine] | 9.3 µg/mL (≈ 91.1 µM) | 11 µg/mL (≈ 108 µM) |  |
| O=[N+]([O-])c1cn2c(n1)OC[C@@H](OCc1ccc(OC(F)(F)F)cc1)C2 [Pretomanid] | 0.06 µg/mL (≈ 0.167 µM) | 0.12 µg/mL (≈ 0.334 µM) |  |
| O=C(Oc1ccc(Cl)cc1)c1ccc(COC(=O)c2cnccn2)cc1 [SAM002946897] |  |  | IC50 (Mtb ClpP1P2; library stocks, concentration–response, read-out: IC50): 3.23 µM |
| CC(=O)NC[C@H]1CN(c2ccc(N3CCOCC3)c(F)c2)C(=O)O1 [Linezolid] | 0.97 µg/mL (≈ 2.88 µM) | 1 µg/mL (≈ 2.96 µM) |  |
